According to US20140171431A1, “AZOLE HETEROCYCLIC COMPOUND, PREPARATION METHOD, PHARMACEUTICAL COMPOSITION AND USE” (priority 2011, published 2014):
Like-named read-outs stand apart in the source and are kept apart here.

Legend:
[1] = test system: atherosclerotic plaque; conditions: diabetic/hypercholesterolemic swine, Wilensky et al.; cited from earlier work
[2] = target: T1, Lp-PLA2 in human serum (Homo sapiens, UniProt Q13093); experiment: In vitro inhibitory activity towards the enzyme Lp-PLA2 in human serum, [3H]PAF substrate; assay type: biochemical; conditions: for inhibition at 0.01 µM: 10 nM; for inhibition at 0.1 µM: 100 nM
T1 construct: from tissue
T1 sequence (Q13093 22-441): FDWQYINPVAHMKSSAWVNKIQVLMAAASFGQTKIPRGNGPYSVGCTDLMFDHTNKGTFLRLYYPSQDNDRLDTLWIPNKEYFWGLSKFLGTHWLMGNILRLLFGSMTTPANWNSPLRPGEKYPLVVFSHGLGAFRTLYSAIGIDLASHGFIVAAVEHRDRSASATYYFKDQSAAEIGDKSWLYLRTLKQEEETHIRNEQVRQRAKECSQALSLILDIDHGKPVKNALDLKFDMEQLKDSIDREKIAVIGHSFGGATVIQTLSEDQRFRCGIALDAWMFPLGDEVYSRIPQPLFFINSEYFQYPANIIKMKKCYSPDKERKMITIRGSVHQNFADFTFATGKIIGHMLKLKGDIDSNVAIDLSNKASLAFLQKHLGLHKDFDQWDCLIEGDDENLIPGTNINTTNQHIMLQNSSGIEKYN
In short: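 Human plasma was preincubated with compound 10 min at 37 °C in 50 mM HEPES, 150 mM NaCl, pH 7.4. Reaction started with 20 nM [3H]PAF, run 10 min at 37 °C, then extracted with CHCl3/MeOH (2:1); radioactivity of the supernatant was counted.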

[3] = target: T2, Lp-PLA2 in rabbit serum (Oryctolagus cuniculus, UniProt G1SE06); experiment: In vitro inhibitory activity towards the enzyme Lp-PLA2 in rabbit serum, [3H]PAF substrate; assay type: biochemical; conditions: 100 nM
T2 construct: from tissue; host or cells: rabbit serum
T2 sequence (G1SE06 22-423): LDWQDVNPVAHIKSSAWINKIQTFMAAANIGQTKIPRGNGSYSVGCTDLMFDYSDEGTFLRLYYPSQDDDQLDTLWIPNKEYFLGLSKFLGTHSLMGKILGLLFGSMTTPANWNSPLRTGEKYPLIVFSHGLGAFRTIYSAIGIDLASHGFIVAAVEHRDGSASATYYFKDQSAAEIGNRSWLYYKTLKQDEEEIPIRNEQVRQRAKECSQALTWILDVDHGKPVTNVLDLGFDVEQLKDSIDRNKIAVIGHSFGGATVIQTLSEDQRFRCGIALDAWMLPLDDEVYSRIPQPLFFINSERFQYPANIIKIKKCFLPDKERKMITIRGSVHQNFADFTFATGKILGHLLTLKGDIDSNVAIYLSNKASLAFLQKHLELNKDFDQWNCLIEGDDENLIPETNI

[4] = human serum, read-out: inhibition, %
[5] = read-out: inhibitory rate towards the human serum derived Lp-PLA2 enzyme
[6] = rabbit serum, read-out: inhibition, %
[7] = read-out: inhibitory rate towards the rabbit serum derived Lp-PLA2 enzyme

Question: For CCN(CC)CCN(Cc1ccc(-c2ccc(C(F)(F)F)cc2)cc1)C(=O)Cn1c(SCc2ccc(F)cc2)nc(=O)c2c1CCC2 [darapladib, Darapladib], which atherosclerotic plaque progression [1] is on record?
Answer: The atherosclerotic plaque progression was “remarkably reduced the atherosclerotic plaque progression”.

Question: Which inhibition at 0.01 µM [2, 4] does the source give for C[N+](C)(C)Cc1nnc(Cn2c(SCc3ccc(F)cc3)nc(=O)c3c2CCC3)n1Cc1ccc(-c2ccc(C(F)(F)F)cc2)cc1 [Example 77, 1-(5-((2-(4-fluorobenzylthio)-4-oxo-4,5,6,7-tetrahydro-1H-cyclopenta[d]pyrimidin-1-yl)methyl)-4-((4′-(trifluoromethyl)biphenyl-4-yl)methyl)-4H-1,2,4-triazol-3-yl)-N,N,N-trimethylmethanaminium iodide] here?
Answer: The inhibition at 0.01 µM was 97%.

Question: What about the inhibition at 0.01 µM [2, 5] of the same compound?
Answer: Its inhibition at 0.01 µM is greater than 80%.

Question: What about the inhibition at 0.1 µM ([2]; human serum) of the same compound?
Answer: The inhibition at 0.1 µM was 98%.

Question: And the inhibition at 0.1 µM [3, 6]?
Answer: Its inhibition at 0.1 µM is 93%.

Question: What about the inhibition at 0.1 µM [3, 7] of the same compound?
Answer: Its inhibition at 0.1 µM is greater than 90%.

Question: With Cc1nnc(Cn2cc(Cc3cnn(C)c3)c(=O)nc2SCc2ccc(F)cc2)n1Cc1ccc(-c2ccc(C(F)(F)F)cc2)cc1 [Example 65, 2-(4-fluorobenzylthio)-5-((1-methyl-1H-pyrazol-4-yl)methyl)-1-((5-methyl-4-((4′-(trifluoromethyl)biphenyl-4-yl)methyl)-4H-1,2,4-triazol-3-yl)methyl)pyrimidin-4(1H)-one] as the compound, how does the inhibition at 0.01 µM [2, 4] read?
Answer: The inhibition at 0.01 µM was 82%.

Question: What about the inhibition at 0.1 µM ([2]; human serum) of the same compound?
Answer: The inhibition at 0.1 µM was 96%.

Question: And the inhibition at 0.1 µM [3, 6]?
Answer: The inhibition at 0.1 µM was 60%.

Question: What does the source list for C[N+](C)(Cc1ccc(F)cc1)Cc1nnc(Cn2c(SCc3ccc(F)cc3)nc(=O)c3c2CCC3)n1Cc1ccc(-c2ccc(C(F)(F)F)cc2)cc1 [Example 76, N-(4-fluorobenzyl)-1-(5-((2-(4-fluorobenzylthio)-4-oxo-4,5,6,7-tetrahydro-1H-cyclopenta[d]pyrimidin-1-yl)methyl)-4-((4′-(trifluoromethyl)biphenyl-4-yl)methyl)-4 H-1,2,4-triazol-3-yl)-N,N-dimethylmethanaminium bromide]?
Answer: inhibition at 0.01 µM [2, 4]: 100%; inhibition at 0.01 µM [2, 5]: > 80%; inhibition at 0.1 µM ([2]; human serum): 100%; inhibition at 0.1 µM [3, 6]: 97%; inhibition at 0.1 µM [3, 7]: > 90%

Question: What does the source list for Cc1nnc(Cn2c(SCc3ccc(F)cc3)nc(=O)c3c2CCC3)n1Cc1ccc(-c2ccc(C(F)(F)F)cc2)cc1 [Example 64, 2-(4-fluorobenzylthio)-1-((5-methyl-4-((4′-(trifluoromethyl)biphenyl-4-yl)methyl)-4H-1,2,4-triazol-3-yl)methyl)-6,7-dihydro-1H-cyclopenta[d]pyrimidin-4(5H)-one]?
Answer: inhibition at 0.01 µM [2, 4]: 73%; inhibition at 0.1 µM ([2]; human serum): 93%; inhibition at 0.1 µM [3, 6]: 78.9%

Question: Which inhibition at 0.01 µM [2, 4] does the source give for O=C1NCCN1CCNCc1nnc(Cn2c(SCc3ccc(F)cc3)nc(=O)c3c2CCC3)n1Cc1ccc(-c2ccc(C(F)(F)F)cc2)cc1 [Example 102, 2-(4-fluorobenzylthio)-1-((5-((2-(2-oxoimidazolidin-1-yl)ethylamino)methyl)-4-((4′-(trifluoromethyl)biphenyl-4-yl)methyl)-4H-1,2,4-triazol-3-yl)methyl)-6,7-dihydro-1H-cyclopenta[d]pyrimidin-4(5H)-one] here?
Answer: The inhibition at 0.01 µM was 77%.

Question: And the inhibition at 0.1 µM [3, 6]?
Answer: Its inhibition at 0.1 µM is 97%.

Question: What does the source list for CC(C)c1nnc(Cn2c(SCc3ccc(F)cc3)nc(=O)c3c2CCC3)n1Cc1ccc(-c2ccc(C(F)(F)F)cc2)cc1 [Example 67, 2-(4-fluorobenzylthio)-1-((5-isopropyl-4-((4′-(trifluoromethyl)biphenyl-4-yl)methyl)-4H-1,2,4-triazol-3-yl)methyl)-6,7-dihydro-1H-cyclopenta[d]pyrimidin-4(5H)-one]?
Answer: inhibition at 0.01 µM [2, 4]: 92%; inhibition at 0.01 µM [2, 5]: > 80%; inhibition at 0.1 µM ([2]; human serum): 98%; inhibition at 0.1 µM [3, 6]: 91%; inhibition at 0.1 µM [3, 7]: > 90%

Question: Which results are given for O=c1nc(SCc2ccc(F)cc2)n(Cc2ncc(CN3CCCC3)n2Cc2ccc(-c3ccc(C(F)(F)F)cc3)cc2)c2c1CCC2 [Example 43, 2-(4-fluorobenzylthio)-1-((5-(pyrrolidin-1-ylmethyl)-1-((4′-(trifluoromethyl)biphenyl-4-yl)methyl)-1H-imidazol-2-yl)methyl)-6,7-dihydro-1H-cyclopenta[d]pyrimidin-4(5H)-one]?
Answer: inhibition at 0.01 µM [2, 4]: 67%; inhibition at 0.1 µM ([2]; human serum): 92%; inhibition at 0.1 µM [3, 6]: 78.6%

Question: With CCN(CC)Cc1onc(Cn2c(SCc3ccc(F)cc3)nc(=O)c3c2CCC3)c1Cc1ccc(-c2ccc(C(F)(F)F)cc2)cc1 [Example 157, 1-((5-((diethylamino)methyl)-4-((4′-(trifluoromethyl)biphenyl-4-yl)methyl)isoxazol-3-yl)methyl)-2-(4-fluorobenzylthio)-6,7-dihydro-1H-cyclopenta[d]pyrimidin-4(5H)-one] as the compound, how does the inhibition at 0.01 µM [2, 4] read?
Answer: Its inhibition at 0.01 µM is 96%.

Question: What about the inhibition at 0.1 µM [3, 6] of the same compound?
Answer: The inhibition at 0.1 µM was 89%.

Question: With CN(C)C1CCN(Cc2nnc(Cn3c(SCc4ccc(F)cc4)nc(=O)c4c3CCC4)n2Cc2ccc(-c3ccc(C(F)(F)F)cc3)cc2)CC1 [Example 103, 1-((5-((4-(dimethylamino)piperidin-1-yl)methyl)-4-((4′-(trifluoromethyl)biphenyl-4-yl)methyl)-4H-1,2,4-triazol-3-yl)methyl)-2-(4-fluorobenzylthio)-6,7-dihydro-1-cyclopenta[d]pyrimidin-4(5H)-one] as the compound, how does the inhibition at 0.01 µM [2, 4] read?
Answer: Its inhibition at 0.01 µM is 71%.

Question: And the inhibition at 0.1 µM ([2]; human serum)?
Answer: The inhibition at 0.1 µM was 98%.

Question: What about the inhibition at 0.1 µM [3, 6] of the same compound?
Answer: The inhibition at 0.1 µM was 82%.

Question: For CN(Cc1ccc(F)cc1)Cc1cnc(Cn2c(SCc3ccc(F)cc3)nc(=O)c3c2CCC3)n1Cc1ccc(-c2ccc(C(F)(F)F)cc2)cc1 [Example 44], which inhibition at 0.01 µM [2, 4] is on record?
Answer: Its inhibition at 0.01 µM is 69%.

Question: What about the inhibition at 0.1 µM ([2]; human serum) of the same compound?
Answer: Its inhibition at 0.1 µM is 95%.

Question: What about the inhibition at 0.1 µM [3, 6] of the same compound?
Answer: Its inhibition at 0.1 µM is 89.1%.

Question: With CN(Cc1ccc(F)cc1)Cc1nnc(Cn2c(SCc3ccc(F)cc3)nc(=O)c3c2CCC3)n1Cc1ccc(-c2ccc(C(F)(F)F)cc2)cc1 [Example 81, 1-((5-(((4-fluorobenzyl)(methyl)amino)methyl)-4-((4′-(trifluoromethyl)biphenyl-4-yl)methyl)-4H-1,2,4-triazol-3-yl)methyl)-2-(4-fluorobenzylthio)-6,7-dihydro-1H-cyclopenta[d]pyrimidin-4(5H)-one] as the compound, how does the inhibition at 0.01 µM [2, 4] read?
Answer: The inhibition at 0.01 µM was 93%.

Question: And the inhibition at 0.01 µM [2, 5]?
Answer: The inhibition at 0.01 µM was greater than 80%.

Question: And the inhibition at 0.1 µM ([2]; human serum)?
Answer: Its inhibition at 0.1 µM is 98%.

Question: What about the inhibition at 0.1 µM [3, 6] of the same compound?
Answer: The inhibition at 0.1 µM was 90%.

Question: What about the inhibition at 0.1 µM [3, 7] of the same compound?
Answer: The inhibition at 0.1 µM was greater than 90%.

Question: What does the source list for C=C(OC(C)=O)c1nnc(Cn2c(SCc3ccc(F)cc3)nc(=O)c3c2CCC3)n1Cc1ccc(-c2ccc(C(F)(F)F)cc2)cc1 [Example 119, 1-(5-((2-(4-fluorobenzylthio)-4-oxo-4,5,6,7-tetrahydro-1H-cyclopenta[d]pyrimidin-1-yl)methyl)-4-((4′-(trifluoromethyl)biphenyl-4-yl)methyl)-4H-1,2,4-triazol-3-yl)vinyl acetate]?
Answer: inhibition at 0.01 µM [2, 4]: 94%; inhibition at 0.01 µM [2, 5]: > 80%; inhibition at 0.1 µM ([2]; human serum): 98%; inhibition at 0.1 µM [3, 6]: 93%; inhibition at 0.1 µM [3, 7]: > 90%

Question: With CC(C)N(C)Cc1nnc(Cn2c(SCc3ccc(F)cc3)nc(=O)c3c2CCC3)n1Cc1ccc(-c2ccc(C(F)(F)F)cc2)cc1 [Example 82, 2-(4-fluorobenzylthio)-1-((5-((isopropyl(methyl)amino)methyl)-4-((4′-(trifluoromethyl)biphenyl-4-yl)methyl)-4H-1,2,4-triazol-3-yl)methyl)-6,7-dihydro-1H-cyclopenta[d]pyrimidin-4(5H)-one] as the compound, how does the inhibition at 0.01 µM [2, 4] read?
Answer: The inhibition at 0.01 µM was 77%.

Question: What about the inhibition at 0.1 µM ([2]; human serum) of the same compound?
Answer: Its inhibition at 0.1 µM is 98%.

Question: What about the inhibition at 0.1 µM [3, 6] of the same compound?
Answer: Its inhibition at 0.1 µM is 85%.

Question: Which inhibition at 0.01 µM [2, 4] does the source give for CN(C)/N=C/c1nnc(Cn2c(SCc3ccc(F)cc3)nc(=O)c3c2CCC3)n1Cc1ccc(-c2ccc(C(F)(F)F)cc2)cc1 [Example 116, (E)-1-((5-((2,2-dimethylhydrazono)methyl)-4-((4′-(trifluoromethyl)biphenyl-4-yl)methyl)-4H-1,2,4-triazol-3-yl)methyl)-2-(4-fluorobenzylthio)-6,7-dihydro-1H-cyclopenta[d]pyrimidin-4(5H)-one] here?
Answer: Its inhibition at 0.01 µM is 88%.

Question: And the inhibition at 0.01 µM [2, 5]?
Answer: The inhibition at 0.01 µM was greater than 80%.

Question: And the inhibition at 0.1 µM ([2]; human serum)?
Answer: Its inhibition at 0.1 µM is 100%.

Question: And the inhibition at 0.1 µM [3, 6]?
Answer: Its inhibition at 0.1 µM is 94%.

Question: What about the inhibition at 0.1 µM [3, 7] of the same compound?
Answer: The inhibition at 0.1 µM was greater than 90%.
